Reference: US11530223B2, “Spiro-lactam NMDA receptor modulators and uses thereof” (Aptinyx Inc., priority 2016, dated 2022)
Like-named read-outs stand apart in the source and are kept apart here.

Key:
NMDAR2B = molecular target: T1, NMDAR2B (Homo sapiens, UniProt Q13224); test: [3H]MK-801 binding in NMDAR2B expressing HEK cell membranes; format: biochemical; parameters: key to B: log EC50: 0=−; ≥1×10^−9 M (e.g., −8)=+; <1×10^−9 M (e.g., −10)=++; conditions: 50 μM glutamate; for Emax: read-out: A: % maximal [3H]MK-801 binding relative to 1 mM glycine; for EC50: read-out: B: log EC50 (converted)
T1 construct: expressed in transfected cells; host or cells: HEK cells (membrane extract)
Method: (§1) Assays were conducted as described by Moskal et al., “GLYX-13: a monoclonal antibody-derived peptide that acts as an N-methyl-D-aspartate receptor modulator,” Neuropharmacology, 49, 1077-87, 2005. These studies were designed to determine if the test compounds act to facilitate NMDAR activation in NMDAR2A, NMDAR2B, NMDAR2C or NMDAR2D expressing HEK cell membranes as measured by increases in [^3H]MK-801 binding.
(§2) In the assay, 300 μg of NMDAR expressing HEK cell membrane extract protein was preincubated for 15 minutes at 25° C. in the presence of saturating concentrations of glutamate (50 μM) and varying concentrations of test compound (1×10^−15M−1×10^−7M), or 1 mM glycine. Following the addition of 0.3 μCi of [^3H]MK-801 (22.5 Ci/mmol), reactions were again incubated for 15 minutes at 25° C. (nonequilibrium conditions). Bound and free [^3H]MK-801 were separated via rapid filtration using a Brandel apparatus.
(§3) In analyzing the data, the DPM (disintegrations per minute) of [^3H]MK-801 remaining on the filter were measured for each concentration of test compound or for 1 mM glycine. The DPM values for each concentration of a ligand (N=2) were averaged. The baseline value was determined from the best fit curve of the DPM values modeled using the GraphPad program and the log(agonist) vs. response (three parameters) algorithm was then subtracted from all points in the dataset. The % maximal [^3H]MK-801 binding was then calculated relative to that of 1 mM glycine: all baseline subtracted DPM values were divided by the average value for 1 mM glycine. The EC50 and % maximal activity were then obtained from the best fit curve of the % maximal [^3H]MK-801 binding data modelled using the GraphPad program and the log(agonist) vs. response (three parameters) algorithm.
(§4) The tables below summarize the results for the wild type […] NMDAR2A, NMDAR2B, NMDAR2C, and NMDAR2D, and whether the compound is not an agonist (−), is an agonist (+), or is a strong agonist (++), where column A is based on the % maximal [^3H]MK-801 binding relative to 1 mM glycine (−=0; <100%=+; and >100%=++); and column B is based on log EC50 values (0=−; ≥1×10^−9 M (e.g., −8)=+; and <1×10^−9 M (e.g., −10)=++).

[1] = oral pharmacokinetics (plasma, brain, CSF); format: in vivo; conditions: Sprague Dawley rats, per os 10 mg/kg; for AUC(0-t) / bioavailability / Cmax / Tmax: plasma; for Tmax: normal saline (first four compounds: 5% NMP, 5% Solutol HS, 90% normal saline), read-out: Tmax
Method: Plasma, brain, and CSF samples were analyzed at various time points over a 24 hour period.

rats = test: positive emotional learning (PEL) test, 50-kHz ultrasonic vocalizations; format: in vivo; conditions: rat, PO, dose .001-1 mg/kg, one hour after administration
Method: Experiments were conducted as described in Burgdorf et al., “The effect of selective breeding for differential rates of 50-kHz ultrasonic vocalizations on emotional behavior in rats,” Devel. Psychobiol., 51:34-46 (2009). Rat 50-kHz ultrasonic vocalization (hedonic USVs) is a validated model for the study of positive affective state and is best elicited by rough-and-tumble play.
The PEL assay measures the acquisition of positive (hedonic) 50-kHz ultrasonic vocalizations (USVs) to a social stimulus, heterospecific rough and tumble play stimulation. Heterospecific rough-and-tumble play stimulation was administered by the experimenter's right hand. One hour after administration of test compound or vehicle negative control (0.5% sodium carboxymethyl cellulose in 0.9% sterile saline vehicle), animals received 3 min of heterospecific rough-and-tumble play that consisted of alternating 15 sec blocks of heterospecific play and 15 sec of no-stimulation. High frequency ultrasonic vocalizations (USVs) were recorded and analyzed by sonogram with Avasoft SASlab Pro (Germany) as previously described by Burgdorf et al., “Positive emotional learning is regulated in the medial prefrontal cortex by GluN2B-containing NMDA receptors,” Neuroscience, 192:515-523 (2011). Frequency modulated 50-kHz USVs that occurred during each of the no-stimulation periods were quantified to measure PEL. Animals were not habituated to play stimulation before testing. Positive emotional learning was measured during the conditioned stimulus (CS) trials preceding the tickle unconditioned stimulus (UCS) trials. Animals received 15 second trials consisting of 6 CS and 6 UCS trials each (3 min total).
The table below summarizes the findings. As each experiment includes its own vehicle group, an example (typical) vehicle score is shown. Max effect (mean number of 50 kHz USVs per 15 seconds) is reported as ^: <6.0; *: 6.0-7.6; **: 7.7-10; ***:10.1-20

NMDAR2A = molecular target: T2, NMDAR2A (Homo sapiens, UniProt Q12879); test: [3H]MK-801 binding in NMDAR2A expressing HEK cell membranes; format: biochemical; parameters: key to B: log EC50: 0=−; ≥1×10^−9 M (e.g., −8)=+; <1×10^−9 M (e.g., −10)=++; conditions: 50 μM glutamate; for EC50: read-out: B: log EC50 (converted)
T2 construct: expressed in transfected cells; host or cells: HEK cells (membrane extract)
Method: as §1, §2, §3, §4

IV pharmacokinetics = format: in vivo; conditions: Sprague Dawley rats; for C0: normal saline (first four compounds: 5% NMP, 5% Solutol HS, 90% normal saline); for Vd: read-out: Vss
Method: Sprague Dawley rats were dosed intravenously using a normal saline formulation containing 2 mg/kg of the compounds identified in the below table (except for the first four compounds that were delivered in 5% NMP, 5% Solutol® HS and 90% normal saline formulation). The table below summarizes the results of the IV pharmacokinetics.

NMDAR2D [2] = molecular target: T3, NMDAR2D (Homo sapiens, UniProt O15399+Q05586); test: [3H]MK-801 binding in NMDAR2D expressing HEK cell membranes; format: biochemical; parameters: key to B: log EC50: 0=−; ≥1×10^−9 M (e.g., −8)=+; <1×10^−9 M (e.g., −10)=++; conditions: for Emax: second part of table, c3, taken as NMDAR2D, read-out: A: % maximal [3H]MK-801 binding relative to 1 mM glycine
T3 construct: expressed in transfected cells; host or cells: HEK cells (membrane extract)
Method: as §1, §2, §3, §4

NMDAR2D [3] = molecular target: T4, NMDAR2D (Homo sapiens, UniProt O15399); test: as above; format: biochemical; parameters: key to B: log EC50: 0=−; ≥1×10^−9 M (e.g., −8)=+; <1×10^−9 M (e.g., −10)=++
T4 construct: expressed in transfected cells; host or cells: HEK cells (membrane extract)
Method: as §1, §2, §3, §4

Sprague Dawley rats = test: Porsolt forced swim test; format: in vivo; conditions: 0.1 mg/kg; for % reduction in float time: relative to vehicle group
Method: A non-clinical in vivo pharmacology study (Porsolt assay) was performed to measure antidepressant-like effects. A negative control (0.5% sodium carboxymethyl cellulose in 0.9% sterile saline vehicle) and a positive control (fluoxetine) are shown for comparison against test compound. The study allowed for the evaluation of the effects of each compound on the Porsolt forced swim test as assessed by the rats' response (reduced floating time) during a 5-minute swimming test.
Male 2-3 month old Sprague Dawley rats were used (Harlan, Indianapolis, Ind.). Rats were housed in Lucite cages with aspen wood chip bedding, maintained on a 12:12 light:dark cycle (lights on at 5 AM), and given ad libitum access to Purina lab chow (USA) and tap water throughout the study.
The Porsolt forced swim test adapted for use in rats was performed as described by Burgdorf et al., (The long-lasting antidepressant effects of rapastinel (GLYX-13) are associated with a metaplasticity process in the medial prefrontal cortex and hippocampus. Neuroscience 308:202-211, 2015). Animals were placed in a 46 cm tall×20 cm in diameter clear glass tube filled to 30 cm with tap water (23±1° C.) for 15 min on the first day (habituation) and 5 min on the subsequent test day. Positive control fluoxetine was dosed 3 times (24 h, 5 h and 1 h) prior to testing. Animals were tested 1 h or 24 h post-dosing with the test compounds or vehicle. Animals received a 15 min habituation session 1 day before the 5 min test. A subset of compounds tested at 1 h post-dosing were retested at 1 wk post-dosing in the same sets of animals. Water was changed after every other animal. Animals were videotaped, and floating time as defined as the minimal amount of effort required to keep the animals head above water was scored offline by a blinded experimenter with high inter-rater reliability (Pearson's r>0.9).
Each compound tested at dose level shown. Significance vs. vehicle group for each experiment is marked. […] A compound marked “No” was not statistically significant from vehicle. Data was averaged for test compound and vehicle groups (N approximately 8 per group) and the percent reduction in floating for group treated with test compound relative to group treated with vehicle is shown.

[4] = Sprague Dawley, rat, po, 10 mg/kg
[5] = Sprague Dawley, rat, po, 10 mg/kg, read-out: Cmax
[6] = Sprague Dawley, rat, in vivo, iv, 2 mg/kg
[7] = Sprague Dawley, rat, in vivo, iv, 2 mg/kg, read-out: C0

T2 sequence (Q12879 23-1464, species assumed, other chains not shown): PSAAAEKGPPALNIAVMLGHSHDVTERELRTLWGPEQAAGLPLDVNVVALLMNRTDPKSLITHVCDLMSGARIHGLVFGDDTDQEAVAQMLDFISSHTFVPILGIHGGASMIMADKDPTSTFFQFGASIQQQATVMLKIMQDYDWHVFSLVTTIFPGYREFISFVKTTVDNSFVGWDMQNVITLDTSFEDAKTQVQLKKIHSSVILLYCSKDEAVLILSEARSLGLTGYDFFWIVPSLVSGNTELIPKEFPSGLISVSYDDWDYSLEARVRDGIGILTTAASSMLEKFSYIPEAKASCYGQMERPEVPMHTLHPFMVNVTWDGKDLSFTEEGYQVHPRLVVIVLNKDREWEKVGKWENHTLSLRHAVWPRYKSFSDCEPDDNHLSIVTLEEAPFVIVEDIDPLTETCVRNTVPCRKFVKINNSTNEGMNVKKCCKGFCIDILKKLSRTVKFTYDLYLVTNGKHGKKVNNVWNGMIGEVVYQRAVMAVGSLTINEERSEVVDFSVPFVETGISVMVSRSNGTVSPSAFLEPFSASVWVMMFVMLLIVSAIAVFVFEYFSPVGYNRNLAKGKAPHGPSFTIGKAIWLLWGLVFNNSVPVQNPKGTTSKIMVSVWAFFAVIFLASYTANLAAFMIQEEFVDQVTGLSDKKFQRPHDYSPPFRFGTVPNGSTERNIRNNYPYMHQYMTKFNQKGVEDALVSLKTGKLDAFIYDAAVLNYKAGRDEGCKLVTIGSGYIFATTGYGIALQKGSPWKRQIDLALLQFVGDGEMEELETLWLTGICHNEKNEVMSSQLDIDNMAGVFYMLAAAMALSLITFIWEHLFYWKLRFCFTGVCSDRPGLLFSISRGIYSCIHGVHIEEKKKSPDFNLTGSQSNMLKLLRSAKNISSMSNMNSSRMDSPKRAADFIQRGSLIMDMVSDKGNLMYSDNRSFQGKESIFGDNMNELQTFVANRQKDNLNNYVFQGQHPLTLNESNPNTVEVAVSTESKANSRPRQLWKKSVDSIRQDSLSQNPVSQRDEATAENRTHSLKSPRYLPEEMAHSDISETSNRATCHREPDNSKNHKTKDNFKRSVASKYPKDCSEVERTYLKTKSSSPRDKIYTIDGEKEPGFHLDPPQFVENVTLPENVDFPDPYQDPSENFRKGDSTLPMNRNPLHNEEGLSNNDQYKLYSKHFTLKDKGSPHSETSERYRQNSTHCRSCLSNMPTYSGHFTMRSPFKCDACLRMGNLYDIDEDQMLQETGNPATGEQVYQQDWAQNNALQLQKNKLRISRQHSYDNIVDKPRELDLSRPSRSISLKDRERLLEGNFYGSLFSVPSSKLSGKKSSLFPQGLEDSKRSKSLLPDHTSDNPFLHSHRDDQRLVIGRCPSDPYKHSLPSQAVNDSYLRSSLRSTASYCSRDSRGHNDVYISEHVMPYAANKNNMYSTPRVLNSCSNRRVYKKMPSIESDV
T1 sequence (Q13224 27-1484, species assumed, other chains not shown): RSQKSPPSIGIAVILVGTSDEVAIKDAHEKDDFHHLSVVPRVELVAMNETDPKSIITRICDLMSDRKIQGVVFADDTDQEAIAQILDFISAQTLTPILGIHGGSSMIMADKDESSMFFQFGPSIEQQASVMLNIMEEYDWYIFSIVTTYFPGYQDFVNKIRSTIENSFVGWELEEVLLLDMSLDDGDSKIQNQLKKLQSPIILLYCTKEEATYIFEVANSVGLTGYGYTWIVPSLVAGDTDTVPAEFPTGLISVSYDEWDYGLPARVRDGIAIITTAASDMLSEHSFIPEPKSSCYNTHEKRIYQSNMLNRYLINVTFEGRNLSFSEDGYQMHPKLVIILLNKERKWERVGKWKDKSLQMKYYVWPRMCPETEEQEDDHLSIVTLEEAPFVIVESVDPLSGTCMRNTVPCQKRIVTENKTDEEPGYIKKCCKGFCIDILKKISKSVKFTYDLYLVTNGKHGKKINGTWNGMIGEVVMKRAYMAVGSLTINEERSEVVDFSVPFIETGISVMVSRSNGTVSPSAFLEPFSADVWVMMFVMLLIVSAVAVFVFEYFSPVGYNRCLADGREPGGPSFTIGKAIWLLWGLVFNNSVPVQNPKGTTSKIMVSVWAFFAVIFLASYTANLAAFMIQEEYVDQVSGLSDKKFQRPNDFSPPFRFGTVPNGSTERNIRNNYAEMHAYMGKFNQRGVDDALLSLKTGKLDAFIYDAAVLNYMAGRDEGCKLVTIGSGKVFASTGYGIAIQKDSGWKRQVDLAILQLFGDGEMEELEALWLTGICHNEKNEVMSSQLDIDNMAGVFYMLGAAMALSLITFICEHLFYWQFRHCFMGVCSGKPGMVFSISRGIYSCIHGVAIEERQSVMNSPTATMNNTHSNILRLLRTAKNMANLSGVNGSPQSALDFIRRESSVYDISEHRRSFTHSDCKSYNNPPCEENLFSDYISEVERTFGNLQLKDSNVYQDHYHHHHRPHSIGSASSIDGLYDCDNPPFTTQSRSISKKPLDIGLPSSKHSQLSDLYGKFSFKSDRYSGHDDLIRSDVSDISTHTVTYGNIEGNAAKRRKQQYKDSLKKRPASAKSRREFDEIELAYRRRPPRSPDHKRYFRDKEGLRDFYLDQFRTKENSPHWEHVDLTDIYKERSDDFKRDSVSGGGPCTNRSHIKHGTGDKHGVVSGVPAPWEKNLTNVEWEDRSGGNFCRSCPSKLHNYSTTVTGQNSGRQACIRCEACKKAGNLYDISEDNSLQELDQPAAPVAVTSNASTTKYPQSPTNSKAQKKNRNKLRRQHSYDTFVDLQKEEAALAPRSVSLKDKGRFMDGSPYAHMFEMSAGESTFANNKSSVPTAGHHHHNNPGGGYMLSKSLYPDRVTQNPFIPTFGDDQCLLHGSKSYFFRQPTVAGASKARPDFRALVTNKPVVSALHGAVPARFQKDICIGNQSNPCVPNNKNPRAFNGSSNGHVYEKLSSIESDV
T3 sequence (O15399 28-1336, species assumed, other chains not shown): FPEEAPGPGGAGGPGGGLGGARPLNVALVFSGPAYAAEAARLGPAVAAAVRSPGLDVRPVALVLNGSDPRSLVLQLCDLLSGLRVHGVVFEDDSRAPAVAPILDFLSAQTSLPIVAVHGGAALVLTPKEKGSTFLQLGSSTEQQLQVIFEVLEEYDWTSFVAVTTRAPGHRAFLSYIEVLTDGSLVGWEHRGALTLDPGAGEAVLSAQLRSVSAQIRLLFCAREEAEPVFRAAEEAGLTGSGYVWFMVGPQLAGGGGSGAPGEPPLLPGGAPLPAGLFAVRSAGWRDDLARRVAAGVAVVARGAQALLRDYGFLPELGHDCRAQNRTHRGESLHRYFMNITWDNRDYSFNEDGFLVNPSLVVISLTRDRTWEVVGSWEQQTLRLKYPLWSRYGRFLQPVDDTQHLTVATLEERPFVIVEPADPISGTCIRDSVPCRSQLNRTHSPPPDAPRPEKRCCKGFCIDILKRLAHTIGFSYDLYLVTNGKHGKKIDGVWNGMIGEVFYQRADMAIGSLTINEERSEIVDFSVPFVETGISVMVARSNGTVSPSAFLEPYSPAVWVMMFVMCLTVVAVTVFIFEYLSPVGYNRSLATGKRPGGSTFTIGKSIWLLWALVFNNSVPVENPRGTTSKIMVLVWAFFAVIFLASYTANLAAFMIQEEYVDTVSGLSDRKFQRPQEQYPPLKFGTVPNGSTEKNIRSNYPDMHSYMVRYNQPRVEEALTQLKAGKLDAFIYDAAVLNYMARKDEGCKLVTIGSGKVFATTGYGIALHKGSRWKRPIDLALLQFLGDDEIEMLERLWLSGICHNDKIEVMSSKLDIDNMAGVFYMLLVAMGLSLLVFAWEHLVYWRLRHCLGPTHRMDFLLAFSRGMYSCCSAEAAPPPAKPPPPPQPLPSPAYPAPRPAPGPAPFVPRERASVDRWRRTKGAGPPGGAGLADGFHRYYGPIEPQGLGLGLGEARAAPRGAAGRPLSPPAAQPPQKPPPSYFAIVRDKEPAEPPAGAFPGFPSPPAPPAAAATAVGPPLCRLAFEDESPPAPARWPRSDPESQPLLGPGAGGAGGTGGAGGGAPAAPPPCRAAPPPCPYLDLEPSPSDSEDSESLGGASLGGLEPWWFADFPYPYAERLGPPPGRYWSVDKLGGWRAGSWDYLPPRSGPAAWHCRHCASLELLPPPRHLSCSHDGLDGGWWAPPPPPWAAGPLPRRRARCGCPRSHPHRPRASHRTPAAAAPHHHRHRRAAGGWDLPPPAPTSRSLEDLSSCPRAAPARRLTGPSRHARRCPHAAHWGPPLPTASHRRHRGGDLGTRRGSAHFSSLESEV
T4 sequence (O15399 28-1336, species assumed, other chains not shown): as above

Row | SMILES | Emax (NMDAR2B) [%] | EC50 (NMDAR2B) [nM] | CSF Cmax [1] [ng/mL] | Brain Cmax [1] [ng/mL] | AUC(0-t) [1, 4] [ng·h/mL] | bioavailability [1, 4] [%] | Cmax [1, 5] [ng/mL] | Tmax ([1]; rat, po) [min] | A: % maximal [3H]MK-801 binding relative to 1 mM glycine (NMDAR2A) | AUC(0-t) (IV pharmacokinetics; [6]) [ng·h/mL] | half-life (IV pharmacokinetics; [6]) [min] | EC50 (NMDAR2A) [nM] | clearance (IV pharmacokinetics; [6]) [mL/min/kg] | C0 (IV pharmacokinetics; [7]) [ng/mL] | Vd (IV pharmacokinetics; [6]) [L/kg] | Emax (NMDAR2D [2]) [%] | other results
1 | CC(C)(C)OC(=O)N1CCCC2(CCNC2=O)C1 (single isomer, unassigned) [RE-1, tert-butyl 1-oxo-2,7-diazaspiro[4.5]decane-7-carboxylate] | < 100 | < 1 | 86.1 | 22 | 273 | 40 | 495 | 15 | − (−=0) | 136 | 16.2 |  |  |  |  |  | Max Effect (mean number of 50 kHz USVs per 15 seconds) (rats): *** (***:10.1-20); B: log EC50 (NMDAR2A): −; Vss (IV pharmacokinetics; intravenous 2 mg/kg): 4.12 L/kg; C0 (IV pharmacokinetics; intravenous 2 mg/kg): 589.9 ng/mL; EC50 (NMDAR2D [2]; second part of table (r25-r35), c4, taken as NMDAR2D, read-out: B: log EC50 (converted)): < 1 nM; A: % maximal [3H]MK-801 binding relative to 1 mM glycine (NMDAR2D [3]; second part of table (r25-r35), c3, taken as NMDAR2D): + (<100%=+)
2 | O=C1NCCC12CCCCN2 (stereo not drawn) [RG-601] | < 100 | < 1 | 1151 | 1447 | 9510 | 83 | 3990 |  |  | 2280 | 69.6 | < 1 | 13.5 | 2850 | 1.14 | > 100 | Tmax [1, 4]: 49.8 min; Emax (NMDAR2A; read-out: A: % maximal [3H]MK-801 binding relative to 1 mM glycine): < 100%; Significance vs. vehicle (Sprague Dawley rats; 1 wk post-dose): Yes (statistically significant (p<=0.05) from vehicle at dose level shown); % reduction in float time (Sprague Dawley rats; 1 wk post-dose): 34.4%; Significance vs. vehicle (Sprague Dawley rats; 1 h post-dose, floating time in 5 min test): Yes (statistically significant (p<=0.05) from vehicle at dose level shown); % reduction in float time (Sprague Dawley rats; 1 h post-dose): 82.7%
3 | CC(C)(C)OC(=O)N1CCCCC12CCNC2=O (stereo not drawn) [RG-605] |  |  | 1211 | 733 |  |  |  | 15 | + (<100%=+) | 1580 | 18 | < 1 | 21 | 3360 | 0.53 | 0 | A: % maximal [3H]MK-801 binding relative to 1 mM glycine (NMDAR2B): − (−=0); B: log EC50 (NMDAR2B): −; % F [1]: 81%; AUClast [1]: 6370 ng·h/mL; Cmax [1]: 6478 ng/mL; B: log EC50 (NMDAR2D [3]; second part of table, c4, taken as NMDAR2D): −
